Test results from US5416231A, “Prostaglandin I2 derivatives” (Asahi Glass Company, Ltd., priority 1990, dated 1995).
Values after ≈ are worked out from the molar mass of the structure shown. Where a name gives a salt, the structure may show the parent alone. One block for each compound: values may come before it.

How the values were obtained:
platelet aggregation [1] = assay: Inhibitory activities on platelet aggregation, in vitro (ADP-induced); format: cell-based, guinea pig (Hartley strain); conditions: platelet rich plasma, 10 minutes incubation, adenosine diphosphate 1 micro M; for IC50: Cavia porcellus, Platelet, 10 min
Method: (§1) From a guinea pig (Hartley strain), citric acid-added blood was obtained by a cardiac puncture. The blood was centrifuged at 120×g for 10 minutes, and the supernatant platelet rich plasma was separated. Measurement of platelet aggregation was conducted by means of an aggregometer in accordance with the Bone's nephelometry (G. V. R. Bone; Nature, vol 194, p 927, 1962). In a test in vitro, a test compound was added to the platelet rich plasma, and the mixture was incubated for 10 minutes. Then, adensoine diphosphate (1 micro M) was added to induce platelet aggregation. The degree of aggregation was represented by the maximum change in the light transmittance (the maximum aggregation rate) within 5 minutes after the addition of adenosine diphosphate, and the results are shown by a 50% inhibitory concentration. In a test ex vivo, a test compound was dissolved in ethanol, then suspended in a 0.5% tragacanth solution or in a 1% β-cyclodextrin solution and orally administered. From blood obtained by a cardiac puncture 30 minutes after the administration, a platelet rich plasma was prepared, and platelet aggregation was measured in the same manner as in the case of the test in vitro.

[2] = tested on: vasopressin-induced ST depression; assay: Anti-anginal activities (Preventive activities on vasopressin-induced ST depression); format: in vivo, male rat (Donryou strain); conditions: for Oral administration MED (minimum effective dose showing a significant preventive activity) / minimal effective dose: 30 minutes prior to vasopressin (0.2 IU/kg), oral; for minimal effective dose: Rattus norvegicus, read-out: Oral administration MED (minimum effective dose showing a significant preventive activity)
Method: Vasopressin (0.2 IU/kg) was administered from the femoral vein of a male rat (Donryou strain) anesthetized with pentobarbital, and the electrocardiogram was recorded for 5 seconds each at intervals of 30 seconds over a period of 5 minutes after the administration. The depression of ST-segment (the average of five pulses) was calculated on the electrocardiogram. The test compound was dissolved in ethanol and intravenously administered 2 minutes prior to the administration of vasopressin, or after being dissolved in ethanol, suspended in a 0.5% tragacanth solution or in a 1% β-cyclodextrin solution and orally administered 30 minutes prior to the administration of vasopressin. The differences of the ST depression between the test compound-administered group and the non-treated control group (5 animals for each group) were analysed by two-way layout analysis of variance.

platelet aggregation [3] = assay: Inhibitory activities on platelet aggregation, ex vivo after oral administration (ADP-induced); format: in vivo, guinea pig (Hartley strain); conditions: 30 minutes after administration; for minimal effective dose: Cavia porcellus, Platelet, 0.5 h, read-out: ex vivo MED (minimum effective dose showing significant inhibitory effects, P < 0.05)
Method: as §1

male mice of ddY strain = assay: Acute toxicity, oral; format: in vivo; conditions: 20 mg/kg, 1% β-cyclodextrin solution, 7 days
Method: To male mice of ddY strain weighing 25-32 g (five animals per each group), a predetermined dose of a test compound dissolved in a small amount of ethanol and then diluted with a 1% β-cyclodextrin solution, was orally administered, and the mortality was recorded over a period of 7 days after the administration.

[4] = Solvent Y: 1% β-cyclodextrin solution
[5] = Solvent X: 0.5% tragacanth solution

Compound: CCCCC(C)C[C@H](O)/C=C/[C@@H]1[C@@H]2[C@H](C[C@H]1O)O/C(=C\C1CC(C(=O)O)C1)[C@@H]2F (single isomer, unassigned) [Compound E-a, sodium salt of 2,4-methylene-7α-fluoro-17,20-dimethylPGI2]
IC50 (platelet aggregation [1]): 1.13 ng/mL
Oral administration MED (minimum effective dose showing a significant preventive activity) [2, 4]: 0.1 mg/kg

Compound: CCCCC(C)C[C@H](O)/C=C/[C@@H]1[C@@H]2[C@H](C[C@H]1O)O/C(=C\C1CC(C(=O)O)C1)[C@@H]2F (single isomer, unassigned) [Compound E-b, sodium salt of 2,4-methylene-7α-fluoro-17,20-dimethylPGI2]
in vitro IC50 (platelet aggregation [1]): 1.70 ng/mL
minimal effective dose (platelet aggregation [3]; [4]): 0.3 mg/kg
minimal effective dose [2, 4]: 0.1 mg/kg
Number of dead animals/Number of test animals (male mice of ddY strain): 0/5

IC50 (platelet aggregation [1]): 18.3 ng/mL
Compound: CCCCC(C)C[C@H](O)/C=C/[C@@H]1[C@@H]2[C@H](C[C@H]1O)O/C(=C\CC1CC1C(=O)O)[C@@H]2F (stereo partly drawn) [Compound A, sodium salt of 2,3-methylene-7α-fluoro-17,20-dimethylPGI2]

Compound: CCCCC(C)C[C@H](O)/C=C/[C@@H]1[C@@H]2[C@H](C[C@H]1O)O/C(=C\C1CC(C(=O)OC)C1)[C@@H]2F (stereo partly drawn) [Compound D-a, methyl ester of 2,4-methylene-7α-fluoro-17,20-dimethylPGI2]
IC50 (platelet aggregation [1]): 2.88 ng/mL (≈ 6.78 nM)
minimal effective dose (platelet aggregation [3]; [4]): 0.3 mg/kg

Compound: CCCCC(C)C[C@H](O)/C=C/[C@@H]1[C@@H]2[C@H](C[C@H]1O)O/C(=C\C1CC(C(=O)OC)C1)[C@@H]2F (stereo partly drawn) [Compound D-b, methyl ester of 2,4-methylene-7α-fluoro-17,20-dimethylPGI2]
in vitro IC50 (platelet aggregation [1]): 1.50 ng/mL
ex vivo MED (minimum effective dose showing significant inhibitory effects, P < 0.05) (platelet aggregation [3]; [4]): 0.3 mg/kg
minimal effective dose [2, 4]: 0.1 mg/kg
Number of dead animals/Number of test animals (male mice of ddY strain): 0/5

Compound: CCCCC[C@H](O)/C=C/[C@@H]1[C@H]2C/C(=C/CCCC(=O)O)O[C@H]2C[C@H]1O [Compound F, natural PGI2, reference compound]
minimal effective dose (platelet aggregation [3]; [4]): > 10 mg/kg

in vitro IC50 (platelet aggregation [1]): 5.50 ng/mL
Compound: methyl ester of (1S*,3R*)-2,4-ethylene-7α-flouro-17,20-dimethylPGI2 [Compound C]

in vitro IC50 (platelet aggregation [1]): 0.87 ng/mL
Compound: methyl ester of (1S*,3S*)-2,4-ethylene-7α-fluoro-17,20-dimethylPGI2 [Compound B-b]
ex vivo MED (minimum effective dose showing significant inhibitory effects, P < 0.05) (platelet aggregation [3]; [5]): 0.3 mg/kg
Intravenous administration MED (minimum effective dose showing a significant preventive activity) ([2]; intravenous, in ethanol, 2 minutes prior to vasopressin (0.2 IU/kg)): 0.001 mg/kg
Oral administration MED (minimum effective dose showing a significant preventive activity) [2, 5]: 0.01 mg/kg
